From patent US20230346744A1, “SULFUR-CONTAINING COMPOUND USEFUL FOR TREATING OR PREVENTING PRESBYOPIA” (SANTEN PHARMACEUTICAL CO., LTD., priority 2020, published 2023)

What was measured:
Format in all cases: in vivo
C57BL/6J mice [1] = assay: Pharmacological Test-1: 3 times-daily instillation for 2 weeks, lens elasticity; conditions: 3 times per day for 14 days; for Lens elasticity improvement: 0.03% (w/v) sample, 2.5 μL/eye, 9-month-old mice, vs vehicle control; for Lens elasticity effect compared with the vehicle control group (in words): 0.03% sample group
Method: The effect of 3 times-daily instillation of Compound 1 for 2 weeks on the lens elasticity was examined. The tests were conducted with reference to the methods described in InvestOphthalmol Vis Sci, 57, 2851-2863, 2016.
A vehicle comprising 1.0% (w/v) of polyoxyl 35 castor oil (hereinafter also referred to as “CO35”), 0.1% (w/v) of ethyl pyruvate, 0.269% (w/v) of sodium dihydrogenphosphate monohydrate (NaH2 PO4.H2O), 0.433% (w/v) of disodium hydrogenphosphate (Na2 HPO4), 0.2% (w/v) of hydroxypropyl methylcellulose, 0.5% (w/v) of NaCl, and purified water (appropriate amount) was prepared.
Compound 1 was stirred with the addition of the vehicle to give a 0.03% (w/v) solution. After preparation, it was refrigerated.
EVO6 was stirred with the addition of the vehicle to give a 0.03% (w/v) solution, which was for comparison in the test for Compound 1. After preparation, it was refrigerated.
1) Each test sample (2.5 μL/eye) was instilled into both eyes of 9-month-old C57BL/6J mice with a Pipetman 3 times per day (around 9:00, 13:00 and 17:00) for 14 days.
(§1) 2) After the final instillation, the mice were euthanized by carbon dioxide inhalation, and then the eyeballs were extracted and rinsed with Hank's balanced salt solution (HBSS).
(§2) 3) The sclera near the optic nerve was cut with a razor, the lens was removed through the incision, and the removed lens was immersed in HBSS.
(§3) 4) The lens was placed on a glass slide, and an all-in-one fluorescence microscope BZ-9000 (Keyence) was used to capture an image of the lens (Image a).
(§4) 5) Next, one cover glass (Corning(registered trade mark) 22×22 mm Square) was placed on the lens, and an image in which the thickness of the lens changed due to the weight was similarly captured (Image b).
(§5) 6) A change in the lens diameter was calculated from the following Equation 1 wherein the lens diameter of Image a is subtracted from the lens diameter of Image b. Then, the lens elasticity improvement of each sample group compared with the vehicle control group was calculated from Equation 2 described below. The mean value of the vehicle control group was based on 8 eyes, and the mean value of each of the sample groups of Compound 1 and EVO6 was based on 10 eyes.
(§6) Change in lens diameter=Lens diameter in Image b of each test sample−Lens diameter in Image a of each test sample Equation 1
(§7) Lens elasticity improvement of each sample group=Mean change in lens diameter of each Test sample group−Mean change in lens diameter of Vehicle control group Equation 2

C57BL/6J mice [2] = assay: Pharmacological Test-2: once-daily instillation of Compound 1 for 2 weeks, lens elasticity; conditions: once per day for 14 days; for Lens elasticity improvement: 2.5 μL/eye, 9-month-old mice, vs vehicle control
Method: The effect of once-daily instillation of Compound 1 for 2 weeks on the lens elasticity was examined.
(§8) A vehicle comprising 1.0% (w/v) of CO35, 0.1% (w/v) of ethyl pyruvate, 0.269% (w/v) of sodium dihydrogenphosphate monohydrate (NaH2 PO4.H2O), 0.433% (w/v) of disodium hydrogenphosphate (Na2HPO4), 0.2% (w/v) of hydroxypropyl methylcellulose, 0.5% (w/v) of NaCl, and purified water (appropriate amount) was prepared.
To Compound 1 was added the vehicle to give a 0.1% (w/v) solution. The resulting 0.1% (w/v) solution was diluted with the vehicle to give a 0.03% (w/v) solution. Further, the resulting 0.03% (w/v) solution was diluted with the vehicle to give a 0.01% (w/v) solution. After preparation, all were frozen.
1) Each test sample (2.5 μL/eye) was instilled into both eyes of 9-month-old C57BL/6J mice with a Pipetman once per day (around 9:00) for 14 days.
as §1, §2, §3, §4
as §5, with “from” for “from the following”, “b, as described below.” for “b.”, “9” for “8”, “1” for “1 and EVO6”
as §6, §7

C57BL/6J mice [3] = assay: Pharmacological Test-3: once-daily instillation of Compounds 1, 2 and 3 for 2 weeks, lens elasticity; conditions: 0.03% sample, 2.5 μL/eye, once per day for 14 days, 8-month-old mice, vs vehicle control
Method: The effect of once-daily instillation of each of Compounds 1, 2 and 3 for 2 weeks on the lens elasticity was examined.
as §8
Each of Compounds 1 and 2 was stirred with the addition of the vehicle to give a 0.1% (w/v) solution.
To Compound 3 was added the vehicle to give a 0.1% (w/v) suspension. The resulting 0.1% (w/v) suspension was diluted with the vehicle to give a 0.03% (w/v) solution. Further, the resulting 0.03% (w/v) solution was diluted with the vehicle to give a 0.01% (w/v) solution.
After preparation, all were frozen.
1) Each test sample (2.5 μL/eye) was instilled into both eyes of 8-month-old C57BL/6J mice with a Pipetman once per day (around 9:00) for 14 days.
as §1, §2, §3, §4
(§9) 6) A change in the lens diameter was calculated from Equation 1 wherein the lens diameter of Image a is subtracted from the lens diameter of Image b, as described below. Then, the lens elasticity improvement of each sample group compared with the vehicle control group was calculated from Equation 2 described below. The mean value of each group was based on 10 eyes.
as §6, §7

Japanese White rabbit = assay: Ocular irritation test-1 (McDonald-Shadduck method); set-up: key to Irritation Score of anterior segment of the eye: Discharge / Irritation Score of anterior segment of the eye: Anterior chamber flare / Irritation Score of anterior segment of the eye: Light reflex / Irritation Score of anterior segment of the eye: Iris / Irritation Score of anterior segment of the eye: Corneal opacity / Irritation Score of anterior segment of the eye: Corneal angiogenesis / Irritation Score of anterior segment of the eye: Corneal epithelial disorder / Irritation Score of anterior segment of the eye: Conjunctival hyperemia / Irritation Score of anterior segment of the eye: Conjunctival edema: —: No noteworthy findings; conditions: 50 μL/eye, 10 times at 30-minute intervals
Method: A vehicle eye drop and a 0.03% (w/v) Compound 1 eye drop were prepared in the same manner as Preparation of Test sample in Pharmacological test-1.
The vehicle eye drop, and the 0.03% (w/v) Compound 1 eye drop were each instilled into one eye of a Japanese White rabbit at a dose volume of 50 μL/eye with pipette 10 times at 30-minute intervals. One hour after the final instillation, ocular irritation of anterior segment of the eye was evaluated using a slit lamp according to the McDonald-Shadduck method.
Observation for corneal epithelial disorder was conducted 3 hours after the final instillation.
The ocular irritation of anterior segment of the eye was scored according to the following criteria: • 1: slight; +2: moderate; +3: severe

C57BL/6J mice [4] = assay: Reference Pharmacological Test 1: effect of EV06 instillation on lens elasticity; conditions: 3 times per day for 15 to 17 days; for Lens elasticity improvement: 2.5 μL/eye, 8-month-old mice, vs vehicle control
Method: The effect of lipoic acid choline ester (EV06) on the lens elasticity was examined. The tests were conducted with reference to the methods described in InvestOphthalmol Vis Sci, 57, 2851-2863, 2016. EV06 is a compound represented by the following formula: A vehicle comprising 0.1% (w/v) of ethyl pyruvate, 0.269% (w/v) of sodium dihydrogenphosphate monohydrate (NaH2PO4.H2O), 0.433% (w/v) of disodium hydrogenphosphate (Na2HPO4), 0.2% (w/v) of hydroxypropyl methylcellulose, 0.5% (w/v) of NaCl, and purified water (appropriate amount) was prepared. EVO6 was sonicated with the addition of the vehicle to prepare a 5% (w/v) suspension. The resulting 5% (w/v) suspension was diluted with the vehicle to prepare a 1.5% (w/v) solution. Further, the resulting 1.5% (w/v) solution was diluted with the vehicle to prepare a 0.5% (w/v) solution. The total amount of each sample to be used in one day was prepared before use. 1) Each test sample (2.5 μL/eye) was instilled into the right eye of 8-month-old C57BL/6J mice with a Pipetman 3 times per day (around 9:00, 13:00 and 17:00) for 15 to 17 days. 2) After the final instillation, the mice were euthanized by carbon dioxide inhalation, and then the eyeballs were extracted and rinsed with Hank's balanced salt solution (HBSS). 3) The sclera near the optic nerve was cut with a razor, the lens was removed through the incision, and the removed lens was immersed in HBSS. 4) The lens was placed on a glass slide, and an all-in-one fluorescence microscope BZ-9000 (Keyence) was used to capture an image of the lens (Image a). 5) Next, one cover glass (Corning^(registered trade mark) 22×22 mm Square) was placed on the lens, and an image in which the thickness of the lens changed due to the weight was similarly captured (Image b). 6) A change in the lens diameter was calculated from Equation 1 wherein the lens diameter of Image a is subtracted from the lens diameter of Image b, as described below. Then, the lens elasticity improvement of each sample group compared with the vehicle control group was calculated from Equation 2 described below. The mean of the vehicle control group was based on 6 eyes and the mean of each EV06 sample group was based on 12 eyes. Change in lens diameter=Lens diameter in Image b of each test sample−Lens diameter in Image a of each test sample Equation 1 Lens elasticity improvement of each sample group=Mean change in lens diameter of each EV06 sample group−Mean change in lens diameter of Vehicle control group equation 2

C57BL/6J mice [5] = assay: Pharmacological Test-5: once-daily instillation of Compounds 5, 6 and 7 for 2 weeks, lens elasticity; conditions: once per day for 14 days
Method: The effect of once-daily instillation of each of Compounds 5, 6, and 7 for 2 weeks on the lens elasticity was examined.
as §8
Compound 5 was stirred with the addition of the vehicle to give a 0.1% (w/v) suspension. The resulting 0.1% (w/v) suspension was diluted with the vehicle to give a 0.03% (w/v) suspension.
Compound 6 was stirred with the addition of the vehicle to give a 0.1% (w/v) suspension. The resulting 0.1% (w/v) a suspension was diluted with the vehicle to give a 0.03% (w/v) suspension.
Compound 7 was stirred with the addition of the vehicle to give a 0.1% (w/v) suspension.
After preparation, all were refrigerated.
EVO6 was stirred with the addition of the vehicle to give a 0.03% (w/v) solution, which was for comparison in the test for Compounds 5, 6 and 7. After preparation, it was refrigerated.
1) Each test sample (2.5 μL/eye) was instilled into both eyes of 8-month-old C57BL/6J mice with a Pipetman once per day (around 13:30) for 14 days.
as §1, §2, §3, §4
as §9, with “8” for “10”
as §6, §7

[6] = 0.03% eye drop, 1 hour after the final instillation

Compound: OCCCCC[C@@H](S)CCS [Compound 1, (R)-6,8-Dimercaptooctan-1-ol]
- Lens elasticity improvement (C57BL/6J mice [1]): 53.8 μm
- Lens elasticity effect compared with the vehicle control group (in words) (C57BL/6J mice [1]): potent elasticity improving effect
- Lens elasticity improvement (C57BL/6J mice [2]; 0.01% (w/v) sample): 17.5 μm
- Lens elasticity improvement (C57BL/6J mice [2]; 0.03% (w/v) sample): 53.0 μm
- Lens elasticity improvement (C57BL/6J mice [2]; 0.1% (w/v) sample): 63.3 μm
- Lens elasticity effect (in words) (C57BL/6J mice [2]; all of the concentrations of 0.01%, 0.03% and 0.1%): showed an elasticity improving effect
- Lens elasticity improvement (C57BL/6J mice [3]): 55.5 μm
- Irritation in anterior segment of the eye (in words) (Japanese White rabbit; 0.03% (w/v) eye drop): No irritation was observed
- Irritation Score of anterior segment of the eye: Anterior chamber flare (Japanese White rabbit; [6]): —
- Irritation Score of anterior segment of the eye: Conjunctival edema (Japanese White rabbit; [6]): —
- Irritation Score of anterior segment of the eye: Corneal angiogenesis (Japanese White rabbit; [6]): —
- Irritation Score of anterior segment of the eye: Corneal opacity (Japanese White rabbit; [6]): —
- Irritation Score of anterior segment of the eye: Discharge (Japanese White rabbit; [6]): —
- Irritation Score of anterior segment of the eye: Iris (Japanese White rabbit; [6]): —
- Irritation Score of anterior segment of the eye: Light reflex (Japanese White rabbit; [6]): —
- Irritation Score of anterior segment of the eye: Conjunctival hyperemia (Japanese White rabbit; 0.03% eye drop, 1 hour after the final instillation, scale +1 slight, +2 moderate, +3 severe): —
- Irritation Score of anterior segment of the eye: Corneal epithelial disorder (Japanese White rabbit; 0.03% eye drop, 3 hours after the final instillation): —

Compound: C[N+](C)(C)CCOC(=O)CCCC[C@@H]1CCSS1.[Cl-] [EV06, lipoic acid choline ester, reference compound]
- Lens elasticity improvement (C57BL/6J mice [4]; 0.5% (w/v) sample): 28.8 μm
- Lens elasticity effect compared with the vehicle control group (in words) (C57BL/6J mice [4]; 0.5%, 1.5% and 5% groups): elasticity improving effect
- Lens elasticity improvement (C57BL/6J mice [4]; 1.5% (w/v) sample): 47.3 μm
- Lens elasticity improvement (C57BL/6J mice [4]; 5% (w/v) sample): 48.7 μm
- Lens elasticity improvement (C57BL/6J mice [1]): 3.6 μm
- Lens elasticity effect compared with the vehicle control group (in words) (C57BL/6J mice [1]): no improvement in lens elasticity
- Lens elasticity effect (in words) (C57BL/6J mice [5]; 0.03% sample group): no elasticity improving effect
- Lens elasticity improvement (C57BL/6J mice [5]; 0.03% sample, 2.5 μL/eye, 8-month-old mice, vs vehicle control): 3.1 μm
